Test results published in PubChem BioAssay AID256 (DTP/NCI, 2004).
“And” between values parts separate entries of the source, which are not always exact repeats. Identical values can stand only once. Toxic doses and inconclusive results are not listed.

Tested on: CD2F1 mice, L1210 leukemia ip, survival T/C
Test: NCI In Vivo Anticancer Drug Screen. Data for tumor model L1210 Leukemia (intraperitoneal) in CD2F1 (CDF1) mice
Conditions: higher = longer survival
Summary of the method: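 Mice carrying a transplanted tumor received test compound or vehicle alone. The value is the measurement in the treated group divided by that in the vehicle-treated control group.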

[1] = endpoint: mean survival time, dose: 100.0 mg/kg/injection, schedule: Q01DX009 (ip), vehicle: saline with Tween-80
[2] = endpoint: mean survival time, dose: 100.0 mg/kg/injection, schedule: Q04DX003 (ip), vehicle: saline with Tween-80
[3] = endpoint: mean survival time, dose: 200.0 mg/kg/injection, schedule: Q01DX009 (ip), vehicle: saline with Tween-80
[4] = endpoint: mean survival time, dose: 200.0 mg/kg/injection, schedule: Q04DX003 (ip), vehicle: saline with Tween-80
[5] = endpoint: mean survival time, dose: 400.0 mg/kg/injection, schedule: Q04DX003 (ip), vehicle: saline with Tween-80
[6] = endpoint: mean survival time, dose: 400.0 mg/kg/injection, schedule: Q01DX009 (ip), vehicle: saline with Tween-80
[7] = endpoint: mean survival time, dose: 25.0 mg/kg/injection, schedule: Q04DX002 (ip), vehicle: saline with Tween-80
[8] = endpoint: mean survival time, dose: 50.0 mg/kg/injection, schedule: Q04DX002 (ip), vehicle: saline with Tween-80
[9] = endpoint: mean survival time, dose: 100.0 mg/kg/injection, schedule: Q04DX002 (ip), vehicle: saline with Tween-80
[10] = endpoint: mean survival time, dose: 6.25 mg/kg/injection, schedule: Q04DX003 (ip), vehicle: saline with Tween-80
[11] = endpoint: mean survival time, dose: 12.5 mg/kg/injection, schedule: Q04DX003 (ip), vehicle: saline with Tween-80
[12] = endpoint: mean survival time, dose: 25.0 mg/kg/injection, schedule: Q04DX003 (ip), vehicle: saline with Tween-80
[13] = endpoint: mean survival time, dose: 100.0 mg/kg/injection, schedule: Q01DX001 (ip), vehicle: saline with Tween-80
[14] = endpoint: mean survival time, dose: 200.0 mg/kg/injection, schedule: Q01DX001 (ip), vehicle: saline with Tween-80
[15] = endpoint: mean survival time, dose: 400.0 mg/kg/injection, schedule: Q01DX001 (ip), vehicle: saline with Tween-80
[16] = endpoint: mean survival time, dose: 200.0 mg/kg/injection, schedule: Q04DX002 (ip), vehicle: saline with Tween-80
[17] = endpoint: mean survival time, dose: 400.0 mg/kg/injection, schedule: Q04DX002 (ip), vehicle: saline with Tween-80
[18] = endpoint: mean survival time, dose: 6.25 mg/kg/injection, schedule: Q01DX009 (ip), vehicle: saline
[19] = endpoint: mean survival time, dose: 12.5 mg/kg/injection, schedule: Q01DX009 (ip), vehicle: saline
[20] = endpoint: mean survival time, dose: 25.0 mg/kg/injection, schedule: Q01DX009 (ip), vehicle: saline

Cc1nc(-c2ccccc2)[nH]c(=O)c1CC(C)O (centres undefined)
T/C [1]: 91 % of control
T/C [2]: 94 % of control
T/C [3]: 96 % of control
T/C [4]: 95 % of control
T/C [5]: 92 % of control

O/N=C1/CCCc2ccccc21
T/C [1]: 98 % of control
T/C [2]: 100 % of control
T/C [3]: 101 % of control
T/C [4]: 97 % of control
T/C [6]: 104 % of control
T/C [5]: 100 % of control

CC(=O)Nc1c(N)nc(Nc2nc3ccccc3[nH]2)[nH]c1=O
T/C [1]: 93 % of control
T/C [2]: 97 % of control
T/C [3]: 95 % of control
T/C [4]: 96 % of control
T/C [6]: 93 % of control
T/C [5]: 87 % of control

NC(Cc1cc([N+](=O)[O-])ccc1CN(CCCl)CCCl)C(=O)O (centres undefined)
T/C (endpoint: mean survival time, dose: 0.25 mg/kg/injection, schedule: Q04DX003 (ip), vehicle: Klucel (hydroxypropylcellulose) (HPC)): 109 % of control
T/C (endpoint: mean survival time, dose: 0.5 mg/kg/injection, schedule: Q04DX003 (ip), vehicle: Klucel (hydroxypropylcellulose) (HPC)): 111 % of control
T/C (endpoint: mean survival time, dose: 0.75 mg/kg/injection, schedule: Q01DX001 (ip), vehicle: Klucel (hydroxypropylcellulose) (HPC)): 103 % of control
T/C (endpoint: mean survival time, dose: 1.0 mg/kg/injection, schedule: Q04DX003 (ip), vehicle: Klucel (hydroxypropylcellulose) (HPC)): 115 % of control
T/C (endpoint: mean survival time, dose: 1.5 mg/kg/injection, schedule: Q01DX001 (ip), vehicle: Klucel (hydroxypropylcellulose) (HPC)): 114 % of control
T/C (endpoint: mean survival time, dose: 3.0 mg/kg/injection, schedule: Q01DX001 (ip), vehicle: Klucel (hydroxypropylcellulose) (HPC)): 123 % of control
T/C (endpoint: mean survival time, dose: 4.0 mg/kg/injection, schedule: Q01DX009 (ip), vehicle: Klucel (hydroxypropylcellulose) (HPC)): 158 % of control
T/C (endpoint: mean survival time, dose: 8.0 mg/kg/injection, schedule: Q01DX009 (ip), vehicle: Klucel (hydroxypropylcellulose) (HPC)): 123 % of control
T/C (endpoint: median survival time, dose: 0.75 mg/kg/injection, schedule: Q01DX001 (ip), vehicle: Klucel (hydroxypropylcellulose) (HPC)): 115 % of control
T/C (endpoint: median survival time, dose: 1.5 mg/kg/injection, schedule: Q01DX001 (ip), vehicle: Klucel (hydroxypropylcellulose) (HPC)): 111 % of control
T/C (endpoint: median survival time, dose: 1.88 mg/kg/injection, schedule: Q04DX003 (ip), vehicle: Klucel (hydroxypropylcellulose) (HPC)): 362 % of control
T/C (endpoint: median survival time, dose: 3.0 mg/kg/injection, schedule: Q01DX001 (ip), vehicle: Klucel (hydroxypropylcellulose) (HPC)): 119 % of control
T/C (endpoint: median survival time, dose: 3.12 mg/kg/injection, schedule: Q01DX001 (ip), vehicle: Klucel (hydroxypropylcellulose) (HPC)): 362 % of control
T/C (endpoint: median survival time, dose: 6.25 mg/kg/injection, schedule: Q01DX001 (ip), vehicle: Klucel (hydroxypropylcellulose) (HPC)): 114 % of control
T/C (endpoint: median survival time, dose: 12.5 mg/kg/injection, schedule: Q01DX001 (ip), vehicle: Klucel (hydroxypropylcellulose) (HPC)): 124 % of control
T/C (endpoint: median survival time, dose: 25.0 mg/kg/injection, schedule: Q01DX001 (ip), vehicle: Klucel (hydroxypropylcellulose) (HPC)): 121 % of control

COc1ccc(NC(=O)Nc2ccccc2Cl)c(OC)c1
T/C [7]: 94 % of control
T/C [8]: 87 % of control
T/C [9]: 102 % of control

Cc1cc(F)ccc1[As](=O)(O)O
T/C [10]: 103 % of control
T/C [11]: 95 % of control
T/C [12]: 97 % of control

N#Cc1cccc2c(S(=O)(=O)O)cccc12
T/C [2]: 98 % of control
T/C [4]: 90 % of control
T/C [5]: 104 % of control

CC(C)N1C(=O)[N+](C)(C)N=C1[O-]
T/C [13]: 103 % of control
T/C [1]: 89 % of control
T/C [14]: 101 % of control
T/C [3]: 97 % of control
T/C [15]: 104 % of control
T/C [6]: 101 % of control

C1CCCC(NC2=NCCO2)CC1
T/C [10]: 98 % of control
T/C [11]: 97 % of control
T/C [12]: 98 % of control

O=C1CCCN1.O=C1CCCN1.[Br][Co][Br]
T/C (endpoint: mean survival time, dose: 37.5 mg/kg/injection, schedule: Q01DX009 (ip), vehicle: saline): 102 % of control
T/C (endpoint: mean survival time, dose: 75.0 mg/kg/injection, schedule: Q01DX009 (ip), vehicle: saline): 107 % of control

COc1cc(C2c3cc4c(cc3CC3COC(=O)C32)OCO4)cc(OC)c1O (centres undefined)
T/C (endpoint: mean survival time, dose: 0.5 mg/kg/injection, schedule: Q01DX009 (ip), vehicle: saline with Tween-80): 91 % of control
T/C (endpoint: mean survival time, dose: 1.0 mg/kg/injection, schedule: Q01DX009 (ip), vehicle: saline with Tween-80): 100 % of control
T/C (endpoint: mean survival time, dose: 2.0 mg/kg/injection, schedule: Q01DX009 (ip), vehicle: saline with Tween-80): 112 % of control
T/C (endpoint: mean survival time, dose: 4.0 mg/kg/injection, schedule: Q01DX009 (ip), vehicle: saline with Tween-80): 100 % of control

COc1ccc(OCCOC(=O)Nc2ccc(Cl)cc2OC)cc1
T/C (endpoint: mean survival time, dose: 50.0 mg/kg/injection, schedule: Q01DX009 (ip), vehicle: saline with Tween-80): 89 % of control
T/C [1]: 93 % of control
T/C [3]: 93 % of control

O=C(O)c1ccccc1C(=O)c1ccc(Cl)cc1
T/C [1]: 100 % of control
T/C [2]: 94 % of control
T/C [3]: 110 % of control
T/C [4]: 97 % of control
T/C [6]: 108 % of control
T/C [5]: 95 % of control

C=CC1CC2C=CC1C2 (centres undefined) (tested in a mixture with another compound)
T/C (endpoint: mean survival time, dose: 80.5 mg/kg/injection, schedule: Q01DX009 (ip), vehicle: saline with Tween-80): 106 % of control
T/C (endpoint: mean survival time, dose: 161.0 mg/kg/injection, schedule: Q01DX009 (ip), vehicle: saline with Tween-80): 90 % of control

COc1cc2ccnc(Nc3ccccc3)c2cc1OC
T/C [9]: 95 % of control
T/C [16]: 95 % of control
T/C [17]: 87 % of control

C=CCS(=O)(=O)Cc1cccc(C)c1
T/C (endpoint: mean survival time, dose: 100.0 mg/kg/injection, schedule: Q01DX001 (ip), vehicle: Klucel (hydroxypropylcellulose) (HPC)): 93 % of control
T/C (endpoint: mean survival time, dose: 200.0 mg/kg/injection, schedule: Q01DX001 (ip), vehicle: Klucel (hydroxypropylcellulose) (HPC)): 107 % of control
T/C (endpoint: mean survival time, dose: 400.0 mg/kg/injection, schedule: Q01DX001 (ip), vehicle: Klucel (hydroxypropylcellulose) (HPC)): 101 % of control

CCCCCCCCCCCCCCCCOc1ccc(S(=O)(=O)NC(C)(C)C)cc1[N+](=O)[O-]
T/C [2]: 105 % of control
T/C [4]: 96 % of control
T/C [5]: 94 % of control

C=CCN1CCCC1=O
T/C [1]: 100 % of control
T/C [3]: 102 % of control
T/C [6]: 102 % of control

O=C(/C=C(\Cl)C(=O)NO)NO
T/C [18]: 101 % of control and 103 % of control
T/C [19]: 94 % of control and 104 % of control
T/C [20]: 95 % of control and 100 % of control
T/C (endpoint: mean survival time, dose: 50.0 mg/kg/injection, schedule: Q01DX009 (ip), vehicle: saline): 115 % of control and 108 % of control
T/C (endpoint: mean survival time, dose: 100.0 mg/kg/injection, schedule: Q01DX009 (ip), vehicle: saline): 113 % of control and 95 % of control

COc1ccc(NC(=O)Nc2ccccc2C)c(OC)c1
T/C [7]: 88 % of control
T/C [8]: 88 % of control
T/C [16]: 90 % of control
T/C [17]: 90 % of control

CCOC(=O)CC(C)(CC(=O)OCC)C(C#N)C(=O)OCC (centres undefined)
T/C [2]: 116 % of control
T/C [4]: 119 % of control
T/C [5]: 120 % of control

c1ccc2cc(OCCOCCOc3ccc4ccccc4c3)ccc2c1
T/C [13]: 103 % of control
T/C [14]: 100 % of control
T/C [15]: 97 % of control

CCC(CNCCCC(=O)O)(C(=O)O)C(=O)O
T/C [7]: 98 % of control
T/C [8]: 94 % of control
T/C [9]: 102 % of control

NCc1ccc(N)cc1
T/C (endpoint: mean survival time, dose: 75.0 mg/kg/injection, schedule: Q01DX001 (ip), vehicle: saline): 98 % of control
T/C (endpoint: mean survival time, dose: 150.0 mg/kg/injection, schedule: Q01DX001 (ip), vehicle: saline): 95 % of control
T/C (endpoint: mean survival time, dose: 300.0 mg/kg/injection, schedule: Q01DX001 (ip), vehicle: saline): 96 % of control

CC(=O)CC(=O)C(F)(F)F.CC(=O)CC(=O)C(F)(F)F.[Ni]
T/C (endpoint: median survival time, dose: 25.0 mg/kg/injection, schedule: Q04DX002 (ip), vehicle: saline with Tween-80): 100 % of control
T/C (endpoint: median survival time, dose: 50.0 mg/kg/injection, schedule: Q04DX002 (ip), vehicle: saline with Tween-80): 122 % of control

NNC(=O)CCC(=O)NN
T/C [18]: 111 % of control
T/C [19]: 103 % of control
T/C [20]: 97 % of control
T/C (endpoint: mean survival time, dose: 100.0 mg/kg/injection, schedule: Q04DX003 (ip), vehicle: saline): 98 % of control
T/C (endpoint: mean survival time, dose: 200.0 mg/kg/injection, schedule: Q04DX003 (ip), vehicle: saline): 113 % of control
T/C (endpoint: mean survival time, dose: 400.0 mg/kg/injection, schedule: Q04DX003 (ip), vehicle: saline): 101 % of control
